# In US20160378909A1, “PROCESS FOR IDENTIFYING CULTURE CONDITIONS FOR A CELL OR ORGANISM” (GLAXOSMITHKLINE BIOLOGICALS SA, priority 2013, published 2016):
# Read-outs that look alike come from different tables or passages of the source.
# System: Bordetella pertussis
# Test: microbe, parasite or virus in culture
# Format: cell-based
# Conditions: for Effect on growth rate in comparison to a minimally identified medium: no concentration stated
# Experimental: Cells were harvested by centrifugation, washed twice with NaCl 0.9% (w/v), and resuspended in fresh medium (de novo minimal CDM; see composition in Table 1) at a theoretical OD650 nm of 0.5, as calculated from the OD650 nm of the culture before harvest. 20 μl of this cell suspension were used to inoculate each well of a 96-well microtiter plate filled with 180 μl of de novo minimal CDM. Only the inner wells of the plate were used for cultures, in order to minimize evaporation, and two controls were included, in which the supplement solution was replaced with water.
# The plate was then incubated for 7 days at 35° C. in a Biotek Synergy H1 reader with constant shaking, and growth was automatically monitored every 10 minutes as OD650 nm.
# The relative growth yield and growth rate for each supplement was then averaged over the three independent repeats, and the standard deviation was calculated.
# [1] = 2 mM in medium, first generation, relative to water controls
# [2] = 2 mM in medium, max OD650 nm relative to water controls
# [3] = 20 mM in medium, first generation, relative to water controls
# [4] = 20 mM in medium, max OD650 nm relative to water controls
# [5] = Bordetella pertussis, 168 h, read-out: Relative yield Average, 0.1 mg/L in medium, max OD650 nm relative to water controls
# [6] = Bordetella pertussis, 168 h, read-out: Relative yield Average, 1 mg/L in medium, max OD650 nm relative to water controls
# [7] = Bordetella pertussis, read-out: Relative growth rate Average, 0.1 mg/L in medium, first generation, relative to water controls
# [8] = Bordetella pertussis, read-out: Relative growth rate Average, 1 mg/L in medium, first generation, relative to water controls
# [9] = Bordetella pertussis, 168 h, read-out: Relative yield Average, 2 mM in medium, max OD650 nm relative to water controls
# [10] = Bordetella pertussis, 168 h, read-out: Relative yield Average, 20 mM in medium, max OD650 nm relative to water controls
# [11] = Bordetella pertussis, read-out: Relative growth rate Average, 2 mM in medium, first generation, relative to water controls
# [12] = Bordetella pertussis, read-out: Relative growth rate Average, 20 mM in medium, first generation, relative to water controls
# [13] = Bordetella pertussis, 168 h, read-out: Relative yield Average, 1.33 mM in medium, max OD650 nm relative to water controls
# [14] = Bordetella pertussis, read-out: Relative growth rate Average, 1.33 mM in medium, first generation, relative to water controls
compound,measurement,setting,value
CC(O)CC(=O)[O-].[Na+] (racemic) [Sodium DL-beta-hydroxybutyrate],Relative growth rate Average,[1],100.28%
same,Relative yield Average,[2],96.73%
same,Relative growth rate Average,[3],94.37%
same,Relative yield Average,[4],145.46%
Nc1ncnc2nc[nH]c12 [Adenine],activity at 0.1 µg/mL,[5],95 to 105%
same,activity at 1 µg/mL,[6],95 to 105%
same,activity at 0.1 µg/mL,[7],95 to 105%
same,activity at 1 µg/mL,[8],95 to 105%
O=C(O)CCCC[C@@H]1SC[C@@H]2NC(=O)N[C@@H]21 [Biotin],activity at 0.02 µg/mL,"Bordetella pertussis, read-out: Relative growth rate Average, 0.02 mg/L in medium, first generation, relative to water controls",> 105%
same,activity at 0.2 µg/mL,"Bordetella pertussis, read-out: Relative growth rate Average, 0.2 mg/L in medium, first generation, relative to water controls",95 to 105%
O.O.[Ca+2].[Cl-].[Cl-] [CaCl2•2H2O],Relative growth rate Average,"0.3 mM in medium, first generation, relative to water controls",107.49%
same,Relative yield Average,"0.3 mM in medium, max OD650 nm relative to water controls",104.03%
same,Relative growth rate Average,"3 mM in medium, first generation, relative to water controls",92.03%
same,Relative yield Average,"3 mM in medium, max OD650 nm relative to water controls",107.34%
C[N+](C)(C)CCO.[Cl-] [Choline chloride],activity at 0.6 µg/mL,"Bordetella pertussis, 168 h, read-out: Relative yield Average, 0.6 mg/L in medium, max OD650 nm relative to water controls",95 to 105%
same,activity at 6 µg/mL,"Bordetella pertussis, 168 h, read-out: Relative yield Average, 6 mg/L in medium, max OD650 nm relative to water controls",95 to 105%
same,activity at 0.6 µg/mL,"Bordetella pertussis, read-out: Relative growth rate Average, 0.6 mg/L in medium, first generation, relative to water controls",95 to 105%
same,activity at 6 µg/mL,"Bordetella pertussis, read-out: Relative growth rate Average, 6 mg/L in medium, first generation, relative to water controls",95 to 105%
O=C(O)CC(O)(CC(=O)O)C(=O)O [Citric acid monohydrate],activity at 2000 µM,[9],< 95%
O.O.O.O.O.O.[Cl-].[Cl-].[Co+2] [CoCl2•6H2O],Relative growth rate Average,"0.42 mg/L in medium, first generation, relative to water controls",93.44%
same,Relative yield Average,"0.42 mg/L in medium, max OD650 nm relative to water controls",103.04%
same,Relative growth rate Average,"4.2 mg/L in medium, first generation, relative to water controls",46.12%
same,Relative yield Average,"4.2 mg/L in medium, max OD650 nm relative to water controls",149.59%
O=C([O-])/C=C/C(=O)[O-].[Na+].[Na+] [Disodium Fumarate],Relative growth rate Average,[1],97.72%
same,Relative yield Average,[2],107.14%
same,Relative growth rate Average,[3],86.72%
same,Relative yield Average,[4],171.26%
Nc1nc(=O)c2nc(CNc3ccc(C(=O)N[C@@H](CCC(=O)O)C(=O)O)cc3)cnc2[nH]1 [Folate],activity at 0.12 µg/mL,"Bordetella pertussis, 168 h, read-out: Relative yield Average, 0.12 mg/L in medium, max OD650 nm relative to water controls",> 105%
same,activity at 1.2 µg/mL,"Bordetella pertussis, 168 h, read-out: Relative yield Average, 1.2 mg/L in medium, max OD650 nm relative to water controls",95 to 105%
same,activity at 0.12 µg/mL,"Bordetella pertussis, read-out: Relative growth rate Average, 0.12 mg/L in medium, first generation, relative to water controls",95 to 105%
same,activity at 1.2 µg/mL,"Bordetella pertussis, read-out: Relative growth rate Average, 1.2 mg/L in medium, first generation, relative to water controls",95 to 105%
OCC(O)CO [Glycerol],activity at 2000 µM,[9],95 to 105%
same,activity at 20000 µM,[10],> 105%
same,activity at 2000 µM,[11],95 to 105%
same,activity at 20000 µM,[12],< 95%
NCC(=O)O [Glycine],activity at 2000 µM,[9],95 to 105%
same,activity at 2000 µM,[11],> 105%
same,activity at 20000 µM,[12],> 105%
Nc1nc2nc[nH]c2c(=O)[nH]1 [Guanine],activity at 0.1 µg/mL,[5],95 to 105%
same,activity at 1 µg/mL,[6],95 to 105%
same,activity at 0.1 µg/mL,[7],95 to 105%
same,activity at 1 µg/mL,[8],95 to 105%
O[C@H]1[C@H](O)[C@@H](O)[C@H](O)[C@@H](O)[C@H]1O [Inositol],activity at 2.8 µg/mL,"Bordetella pertussis, 168 h, read-out: Relative yield Average, 2.8 mg/L in medium, max OD650 nm relative to water controls",95 to 105%
same,activity at 28 µg/mL,"Bordetella pertussis, 168 h, read-out: Relative yield Average, 28 mg/L in medium, max OD650 nm relative to water controls",95 to 105%
same,activity at 2.8 µg/mL,"Bordetella pertussis, read-out: Relative growth rate Average, 2.8 mg/L in medium, first generation, relative to water controls",95 to 105%
same,activity at 28 µg/mL,"Bordetella pertussis, read-out: Relative growth rate Average, 28 mg/L in medium, first generation, relative to water controls",95 to 105%
C[C@H](N)C(=O)O [L-Alanine],activity at 2000 µM,[9],95 to 105%
same,activity at 2000 µM,[11],> 105%
N=C(N)NCCC[C@H](N)C(=O)O [L-Arginine],activity at 2000 µM,[9],> 105%
same,activity at 2000 µM,[11],> 105%
same,activity at 20000 µM,[12],> 105%
same,Effect on growth rate in comparison to a minimally identified medium,,positive effect
NC(=O)C[C@H](N)C(=O)O [L-Asparagine],activity at 1330 µM,[13],95 to 105%
same,activity at 13300 µM,"Bordetella pertussis, 168 h, read-out: Relative yield Average, 13.3 mM in medium, max OD650 nm relative to water controls",< 95%
same,activity at 1330 µM,[14],95 to 105%
same,activity at 13300 µM,"Bordetella pertussis, read-out: Relative growth rate Average, 13.3 mM in medium, first generation, relative to water controls",95 to 105%
N[C@@H](CC(=O)O)C(=O)O [L-Aspartate],Relative growth rate Average,"0.225 mM in medium, first generation, relative to water controls",96.87%
same,Relative yield Average,"0.225 mM in medium, max OD650 nm relative to water controls",106.30%
same,Relative growth rate Average,"2.25 mM in medium, first generation, relative to water controls",72.32%
same,Relative yield Average,"2.25 mM in medium, max OD650 nm relative to water controls",99.74%
N[C@@H](CS)C(=O)O [L-Cysteine],activity at 250 µM,"Bordetella pertussis, 168 h, read-out: Relative yield Average, 0.25 mM in medium, max OD650 nm relative to water controls",158%
same,activity at 2000 µM,[9],> 105%
same,activity at 2500 µM,"Bordetella pertussis, 168 h, read-out: Relative yield Average, 2.5 mM in medium, max OD650 nm relative to water controls",212%
same,activity at 20000 µM,[10],> 105%
same,activity at 250 µM,"Bordetella pertussis, read-out: Relative growth rate Average, 0.25 mM in medium, first generation, relative to water controls",155%
same,activity at 2000 µM,[11],> 105%
same,activity at 2500 µM,"Bordetella pertussis, read-out: Relative growth rate Average, 2.5 mM in medium, first generation, relative to water controls",146%
same,activity at 20000 µM,[12],> 105%
NC(=O)CC[C@H](N)C(=O)O [L-Glutamine],activity at 2000 µM,[9],95 to 105%
same,activity at 20000 µM,[10],> 105%
same,activity at 2000 µM,[11],95 to 105%
same,activity at 20000 µM,[12],< 95%
N[C@@H](Cc1c[nH]cn1)C(=O)O [L-Histidine],activity at 2000 µM,[9],95 to 105%
same,activity at 20000 µM,[10],< 95%
same,activity at 2000 µM,[11],> 105%
same,activity at 20000 µM,[12],> 105%
CC[C@H](C)[C@H](N)C(=O)O [L-Isoleucine],activity at 2000 µM,[9],< 95%
same,activity at 20000 µM,[10],< 95%
same,activity at 2000 µM,[11],< 95%
same,Effect on growth rate in comparison to a minimally identified medium,,negative effect
CC(C)C[C@H](N)C(=O)O [L-Leucine],activity at 1330 µM,[13],95 to 105%
same,activity at 1330 µM,[14],95 to 105%
Cl.NCCCC[C@H](N)C(=O)O [L-Lysine HCl],activity at 2000 µM,[9],> 105%
same,activity at 2000 µM,[11],< 95%
CSCC[C@H](N)C(=O)O [L-Methionine],activity at 20000 µM,[10],> 105%
same,activity at 2000 µM,[11],> 105%
same,activity at 20000 µM,[12],> 105%
N[C@@H](Cc1ccccc1)C(=O)O [L-Phenylalanine],activity at 1330 µM,[13],< 95%
same,activity at 1330 µM,[14],< 95%
O=C(O)[C@@H]1CCCN1 [L-Proline],activity at 2000 µM,[9],95 to 105%
same,activity at 20000 µM,[10],> 105%
N[C@@H](CO)C(=O)O [L-Serine],activity at 2000 µM,[9],< 95%
same,activity at 20000 µM,[10],< 95%
same,activity at 2000 µM,[11],95 to 105%
C[C@@H](O)[C@H](N)C(=O)O [L-Threonine],activity at 2000 µM,[9],95 to 105%
same,activity at 20000 µM,[10],< 95%
same,activity at 2000 µM,[11],< 95%
N[C@@H](Cc1c[nH]c2ccccc12)C(=O)O [L-Tryptophane],activity at 518 µM,"Bordetella pertussis, 168 h, read-out: Relative yield Average, 0.518 mM in medium, max OD650 nm relative to water controls",> 105%
same,activity at 5180 µM,"Bordetella pertussis, 168 h, read-out: Relative yield Average, 5.18 mM in medium, max OD650 nm relative to water controls",95 to 105%
same,activity at 518 µM,"Bordetella pertussis, read-out: Relative growth rate Average, 0.518 mM in medium, first generation, relative to water controls",95 to 105%
N[C@@H](Cc1ccc(O)cc1)C(=O)O [L-Tyrosine],activity at 22.1 µM,"Bordetella pertussis, 168 h, read-out: Relative yield Average, 0.0221 mM in medium, max OD650 nm relative to water controls",95 to 105%
same,activity at 221 µM,"Bordetella pertussis, 168 h, read-out: Relative yield Average, 0.221 mM in medium, max OD650 nm relative to water controls",95 to 105%
same,activity at 22.1 µM,"Bordetella pertussis, read-out: Relative growth rate Average, 0.0221 mM in medium, first generation, relative to water controls",95 to 105%
same,activity at 221 µM,"Bordetella pertussis, read-out: Relative growth rate Average, 0.221 mM in medium, first generation, relative to water controls",< 95%
CC(C)[C@H](N)C(=O)O [L-Valine],activity at 2000 µM,[9],95 to 105%
same,activity at 2000 µM,[11],< 95%
O.O.O.O.O.O.[Cl-].[Cl-].[Mg+2] [MgCl2•6H2O],Relative growth rate Average,"1 mM in medium, first generation, relative to water controls",99.38%
same,Relative yield Average,"1 mM in medium, max OD650 nm relative to water controls",102.26%
same,Relative growth rate Average,"10 mM in medium, first generation, relative to water controls",106.39%
same,Relative yield Average,"10 mM in medium, max OD650 nm relative to water controls",222.99%
